Results published in patent US20230000996A1, “RAPAFUCIN DERIVATIVE COMPOUNDS AND METHODS OF USE THEREOF” (The Johns Hopkins University, priority 2019, published 2023).

Legend:
A549 = assay: Cell proliferation assay (Prolif.), IC50 scored relative to DMSO control; assay type: cell-based; conditions: A549 cells; for Rel. Prolif., A549: scored low/medium/high; for Prolif, A549: IC50 class relative to DMSO control
Method: Cell Proliferation Assay (Prolif.) Guo et al. (2018) Nat. Chem. 11:254-63. Specific cell lines are indicated in each assay and cultured in complete growth media. Activity is scored according to the IC50 values relative to DMSO control. “Low” indicates an IC50 greater than 600 nM, “Medium” indicates an IC50 between 300 nM and 600 nM “High” indicates an IC50 less than 300 nM. “Rel.Uptake” refers to uptake activity characterization relative to a single concentration assay. “Low” indicates a response greater than 0.6 times the activity relative to DMSO, “Medium” indicates a response between 0.6 and 0.3 times the activity relative to DMSO, “High” indicates a response less than 0.3 times the activity relative to DMSO.

[1] = Nucleoside uptake, single concentration assay (Rel.Uptake); cell line indicated in each table; assay type: cell-based; conditions: 293T cells, response relative to DMSO
Method: Nucleoside Uptake Assay (uptake). Nuceloside uptake assays were performed with using 3H-Thymidine as described in Guo et al. (2018) Nat. Chem. 11:254-63. Specific cell lines are indicated in each assay and cultured in complete growth media. Activity is scored according to the IC50 values relative to DMSO control. “Low” indicates an IC50 greater than 600 nM, “Medium” indicates an IC50 between 300 nM and 600 nM “High” indicates an IC50 less than 300 nM. “Rel.Uptake” refers to uptake activity characterization relative to a single concentration assay. “Low” indicates a response greater than 0.6 times the activity relative to DMSO, “Medium” indicates a response between 0.6 and 0.3 times the activity relative to DMSO, “High” indicates a response less than 0.3 times the activity relative to DMSO.

[2] = proliferation response relative to DMSO control
[3] = nucleoside uptake, single concentration assay

SMILES	Rel. Prolif., A549 (A549; [2])	Prolif, A549 (A549)	Rel. Uptake, 293T [1, 3]	further results
CCCC[C@H]1C(=O)N[C@@H](Cc2ccc3ccccc3c2)C(=O)N(C)[C@@H](COC(C)(C)C)C(=O)NCC(=O)N(C)CCC=CC(=O)OCC(C)(C)C(=O)C(=O)N2CCCC[C@H]2C(=O)O[C@H](CCc2ccc(OC)c(OC)c2)c2cc(ccc2F)OCC(=O)N1C [Compound 573]	low	–	–	–
CCCC[C@H]1C(=O)N[C@@H](Cc2ccc3ccccc3c2)C(=O)N(C)[C@@H](COC(C)(C)C)C(=O)NCC(=O)N(C)CCC=CC(=O)OCC(C)(C)C(=O)C(=O)N2CCCC[C@H]2C(=O)O[C@H](CCc2cc(OC)c(OC)cc2OC)c2cccc(c2)OCC(=O)N1C [Compound 562]	medium	me- dium	–	–
CCCC[C@H]1C(=O)N[C@@H](Cc2ccc3ccccc3c2)C(=O)N(C)[C@@H](COC(C)(C)C)C(=O)NCC(=O)N(C)CCC=CC(=O)OCC(C)(C)C(=O)C(=O)N2CCCC[C@H]2C(=O)O[C@H](CCc2ccc(OC)c(OC)c2)c2ccc(F)c(c2)OCC(=O)N1C [Compound 576]	medium	me- dium	–	–
CCCC[C@H]1C(=O)N[C@@H](Cc2ccc3ccccc3c2)C(=O)N(C)[C@@H](COC(C)(C)C)C(=O)NCC(=O)N(C)CCC=CC(=O)OCC(C)(C)C(=O)C(=O)N2CCCC[C@H]2C(=O)O[C@H](CCc2cc(F)c(OC)c(OC)c2)c2cccc(c2)OCC(=O)N1C [Compound 568]	medium	me- dium	–	–
C=CC(=O)OCC(C)(C)C(=O)C(=O)N1CCCC[C@H]1C(=O)O[C@H](CCc1ccc(OC)c(OC)c1)c1cncc(NC(=O)CCC(=O)OC(C)(C)C)n1 [Compound 13]	–	–	–	Rel. Prolif., A549 (A549; proliferation response relative to DMSO, single concentration): low
CCCC[C@H]1C(=O)N[C@@H](Cc2ccc3ccccc3c2)C(=O)N(C)[C@@H](COC(C)(C)C)C(=O)NCC(=O)N(C)CCC=CC(=O)OCC(C)(C)C(=O)C(=O)N2CCCC[C@H]2C(=O)O[C@H](CCc2cc(OC)cc(OC)c2OC)c2cccc(c2)OCC(=O)N1C [Compound 563]	low	–	–	–
CCCC[C@H]1C(=O)N[C@@H](Cc2ccc3ccccc3c2)C(=O)N(C)[C@@H](COC(C)(C)C)C(=O)NCC(=O)N(C)CCC=CC(=O)OCC(C)(C)C(=O)C(=O)N2CCCC[C@H]2C(=O)O[C@H](CCc2ccc(OC)c(OC)c2OC)c2cccc(c2)OCC(=O)N1C [Compound 561]	medium	me- dium	–	–
CCCC[C@H]1C(=O)N[C@@H](Cc2ccc3ccccc3c2)C(=O)N(C)[C@@H](COC(C)(C)C)C(=O)NCC(=O)N(C)CCC=CC(=O)OCC(C)(C)C(=O)C(=O)N2CCCC[C@H]2C(=O)O[C@H](CCc2c(OC)ccc(OC)c2OC)c2cccc(c2)OCC(=O)N1C [Compound 564]	low	–	–	–
CCCC[C@H]1C(=O)N[C@@H](Cc2ccc3ccccc3c2)C(=O)N(C)[C@@H](COC(C)(C)C)C(=O)NCC(=O)N(C)CCC=CC(=O)OCC(C)(C)C(=O)C(=O)N2CCN(C(=O)OCC3c4ccccc4-c4ccccc43)C[C@H]2C(=O)O[C@H](CCc2ccc(OC)c(OC)c2)c2cccc(c2)OCC(=O)N1C [Compound 571]	low	–	–	–
CCCC[C@H]1C(=O)N[C@@H](Cc2ccc3ccccc3c2)C(=O)N(C)[C@@H](COC(C)(C)C)C(=O)NCC(=O)N(C)CCC=CC(=O)OCC(C)(C)C(=O)C(=O)N2CCCC[C@H]2C(=O)O[C@H](CCc2ccc(OC)c(OC)c2F)c2cccc(c2)OCC(=O)N1C [Compound 570]	medium	me- dium	–	–
CCCC[C@H]1C(=O)N[C@@H](Cc2ccc3ccccc3c2)C(=O)N(C)[C@@H](COC(C)(C)C)C(=O)NCC(=O)N(C)CCC=CC(=O)OCC(C)(C)C(=O)C(=O)N2CCCC[C@H]2C(=O)O[C@H](CCc2cc(OC)c(OC)cc2F)c2cccc(c2)OCC(=O)N1C [Compound 569]	medium	me- dium	–	–
CCCC[C@H]1C(=O)N[C@@H](Cc2ccc3ccccc3c2)C(=O)N(C)[C@@H](COC(C)(C)C)C(=O)NCC(=O)N(C)CCC=CC(=O)OCC(C)(C)C(=O)C(=O)N2CCCC[C@H]2C(=O)O[C@H](CCc2cc(OC)c(OC)cc2O)c2cccc(c2)OCC(=O)N1C [Compound 567]	medium	me- dium	–	–
COc1ccc(CC[C@H]2OC(=O)[C@@H]3CCCCN3C(=O)C(=O)C(C)(C)COC(=O)C=CCCN(C)C(=O)[C@@H](Cc3ccccc3)NC(=O)CN(C)C(=O)[C@@H](Cc3ccccc3)NC(=O)[C@H](Cc3ccc(O)cc3)N(C)C(=O)COc3cc(F)cc2c3)cc1OC [Compound 1576]	–	–	medium	–
COc1ccc(CC[C@H]2OC(=O)[C@@H]3CCCCN3C(=O)C(=O)C(C)(C)COC(=O)C=CCCN(C)C(=O)[C@@H](Cc3ccccc3)NC(=O)CN(C)C(=O)[C@@H](Cc3ccccc3)NC(=O)[C@H](Cc3ccc(O)cc3)N(C)C(=O)COc3cc2ccc3F)cc1OC [Compound 1578]	–	–	low	–
COc1cc(CC[C@H]2OC(=O)[C@@H]3CCCCN3C(=O)C(=O)C(C)(C)COC(=O)C=CCCN(C)C(=O)[C@@H](Cc3ccccc3)NC(=O)CN(C)C(=O)[C@@H](Cc3ccccc3)NC(=O)[C@H](Cc3ccc(O)cc3)N(C)C(=O)COc3cccc2c3)cc(F)c1OC [Compound 1569]	–	–	low	–
COc1ccc(CC[C@H]2OC(=O)[C@@H]3CCCCN3C(=O)C(=O)C(C)(C)CNC(=O)C=CCCN(C)C(=O)[C@H](CC(C)C)N(C)C(=O)[C@H]3CCCN3C(=O)[C@H](Cc3ccccc3)N(C)C(=O)C(c3ccccc3)NC(=O)CCC(=O)Nc3cccc2c3)cc1OC (stereo partly shown) [Compound 1555]	–	–	high	–
COc1ccc(CC[C@H]2OC(=O)[C@@H]3CCCCN3C(=O)C(=O)C(C)(C)COC(=O)C=CCCN(C)C(=O)[C@H](CC(C)C)N(C)C(=O)[C@H]3CCCN3C(=O)[C@H](Cc3ccc(NC(=O)Cc4cccnc4)cc3)NC(=O)[C@H](c3ccccc3)NC(=O)CCC(=O)Nc3cccc2c3)cc1OC [Compound 1589]	–	–	Low (“Low” indicates a response greater than 0.6 times the activity relative to DMSO)	–
COc1ccc(OC)c(OC)c1CC[C@H]1OC(=O)[C@@H]2CCCCN2C(=O)C(=O)C(C)(C)COC(=O)C=CCCN(C)C(=O)[C@@H](Cc2ccccc2)NC(=O)CN(C)C(=O)[C@@H](Cc2ccccc2)NC(=O)[C@H](Cc2ccc(O)cc2)N(C)C(=O)COc2cccc1c2 [Compound 1583]	–	–	low	–
CCCC[C@H]1C(=O)N[C@@H](Cc2ccc3ccccc3c2)C(=O)N(C)[C@@H](COC(C)(C)C)C(=O)NCC(=O)N(C)CCC=CC(=O)OCC(C)(C)C(=O)C(=O)N2CCCC[C@H]2C(=O)O[C@H](CCc2ccc(OC)c(OC)c2O)c2cccc(c2)OCC(=O)N1C [Compound 565]	medium	me- dium	–	–
COc1cc(CC[C@H]2OC(=O)[C@@H]3CCCCN3C(=O)C(=O)C(C)(C)COC(=O)C=CCCN(C)C(=O)[C@@H](Cc3ccccc3)NC(=O)CN(C)C(=O)[C@@H](Cc3ccccc3)NC(=O)[C@H](Cc3ccc(O)cc3)N(C)C(=O)COc3cccc2c3)cc(O)c1OC [Compound 1567]	–	–	medium	–
CCCC[C@H]1C(=O)N[C@@H](Cc2ccc3ccccc3c2)C(=O)N(C)[C@@H](COC(C)(C)C)C(=O)NCC(=O)N(C)CCC=CC(=O)OCC(C)(C)C(=O)C(=O)N2CCCC[C@H]2C(=O)O[C@H](CCc2ccc(OC)c(OC)c2)c2cncc(c2)OCC(=O)N1C [Compound 1565]	–	–	low	–
COc1ccc(CC[C@H]2OC(=O)[C@@H]3CN(C(=O)OCC4c5ccccc5-c5ccccc54)CCN3C(=O)C(=O)C(C)(C)COC(=O)C=CCCN(C)C(=O)[C@@H](Cc3ccccc3)NC(=O)CN(C)C(=O)[C@@H](Cc3ccccc3)NC(=O)[C@H](Cc3ccc(O)cc3)N(C)C(=O)COc3cccc2c3)cc1OC [Compound 1572]	–	–	low	–
COc1ccc(CC[C@H]2OC(=O)[C@@H]3CCCCN3C(=O)C(=O)C(C)(C)COC(=O)C=CCCN(C)C(=O)[C@H](CC(C)C)N(C)C(=O)[C@H]3CCCN3C(=O)[C@H](Cc3ccc(CC(=O)OC(C)(C)C)cc3)NC(=O)C(c3ccccc3)NC(=O)CCC(=O)Nc3cccc2c3)cc1OC (stereo partly shown) [Compound 1081]	–	–	–	Rel. Uptake, 293T ([1]; single concentration): medium
COc1ccc(CC[C@H]2OC(=O)[C@@H]3CCCCN3C(=O)C(=O)C(C)(C)COC(=O)C=CCCN(C)C(=O)[C@@H]3CCCN3C(=O)[C@H](COC(C)(C)C)N(C)C(=O)[C@@H](c3ccccc3)NC(=O)[C@H](C)N(C)C(=O)COc3cc(F)cc2c3)cc1OC [Compound 1595]	–	–	Low (“Low” indicates a response greater than 0.6 times the activity relative to DMSO)	–
C=C1NCC(=O)N(C)CC/C=C\C(=O)OCC(C)(C)C(=O)C(=O)N2CCCC[C@H]2C(=O)O[C@H](CCc2ccc(OC)c(OC)c2)c2cccc(c2)NC(=O)CCC(=O)N(C)[C@@H](CC(C)C)C(=O)N[C@H](Cc2ccccc2)C(=O)N(C)[C@H]1[C@@H](C)CC [Compound 1592]	–	–	Low (“Low” indicates a response greater than 0.6 times the activity relative to DMSO)	–
COc1cc(F)c(CC[C@H]2OC(=O)[C@@H]3CCCCN3C(=O)C(=O)C(C)(C)COC(=O)C=CCCN(C)C(=O)[C@@H](Cc3ccccc3)NC(=O)CN(C)C(=O)[C@@H](Cc3ccccc3)NC(=O)[C@H](Cc3ccc(O)cc3)N(C)C(=O)COc3cccc2c3)cc1OC [Compound 1570]	–	–	medium	–
